Measured values from ChEMBL document CHEMBL3259595, “Nitric oxide synthase inhibitors that interact with both heme propionate and tetrahydrobiopterin show high isoform selectivity” (J Med Chem, 2014).

Experiments:
Nitric oxide synthase 1 = Nitric oxide synthase 1 (Rattus norvegicus, UniProt P29476); assay: Inhibition of purified rat nNOS assessed as inhibition of nitric oxide-mediated oxidation of hemoglobin-A by hemoglobin capture assay
[1] = biological target: T1, Nitric oxide synthase, inducible (Mus musculus, UniProt P29477); assay: Inhibition of purified mouse iNOS assessed as inhibition of nitric oxide-mediated oxidation of hemoglobin-A by hemoglobin capture assay
T1 sequence (P29477 whole entry): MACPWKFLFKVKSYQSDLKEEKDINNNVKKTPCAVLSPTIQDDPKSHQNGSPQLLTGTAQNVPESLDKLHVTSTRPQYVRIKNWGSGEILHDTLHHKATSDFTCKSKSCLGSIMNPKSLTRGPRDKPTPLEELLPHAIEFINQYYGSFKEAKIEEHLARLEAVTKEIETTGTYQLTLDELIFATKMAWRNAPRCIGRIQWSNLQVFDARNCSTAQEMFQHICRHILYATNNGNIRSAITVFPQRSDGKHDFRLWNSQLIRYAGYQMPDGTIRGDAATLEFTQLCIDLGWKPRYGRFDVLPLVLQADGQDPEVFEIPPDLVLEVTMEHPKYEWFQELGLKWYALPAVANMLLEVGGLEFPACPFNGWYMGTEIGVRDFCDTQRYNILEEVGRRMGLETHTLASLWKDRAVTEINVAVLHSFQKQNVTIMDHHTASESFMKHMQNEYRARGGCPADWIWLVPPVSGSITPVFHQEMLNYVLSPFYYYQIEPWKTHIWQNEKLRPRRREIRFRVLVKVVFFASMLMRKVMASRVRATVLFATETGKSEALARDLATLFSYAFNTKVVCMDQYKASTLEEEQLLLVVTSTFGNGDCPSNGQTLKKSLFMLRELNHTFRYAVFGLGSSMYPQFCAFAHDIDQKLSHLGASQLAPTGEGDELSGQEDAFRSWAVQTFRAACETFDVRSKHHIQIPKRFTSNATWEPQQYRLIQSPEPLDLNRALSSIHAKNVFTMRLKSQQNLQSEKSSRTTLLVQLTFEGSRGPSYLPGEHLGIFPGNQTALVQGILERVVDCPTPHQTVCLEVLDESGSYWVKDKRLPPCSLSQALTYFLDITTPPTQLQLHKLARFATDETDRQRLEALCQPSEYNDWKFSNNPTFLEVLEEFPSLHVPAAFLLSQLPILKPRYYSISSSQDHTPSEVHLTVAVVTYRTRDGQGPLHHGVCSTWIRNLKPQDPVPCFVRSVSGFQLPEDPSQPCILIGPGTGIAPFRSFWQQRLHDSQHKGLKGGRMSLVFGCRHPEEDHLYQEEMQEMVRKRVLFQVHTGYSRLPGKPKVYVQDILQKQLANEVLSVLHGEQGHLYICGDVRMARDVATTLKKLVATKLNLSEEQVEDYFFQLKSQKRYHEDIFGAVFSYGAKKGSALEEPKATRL

[2] = Selectivity ratio of Ki for purified mouse iNOS to Ki for purified rat nNOS
[3] = Selectivity ratio of Ki for purified bovine eNOS to Ki for purified rat nNOS
Nitric oxide synthase 3 = biological target: T2, Nitric oxide synthase 3 (Bos taurus, UniProt P29473); assay: Inhibition of purified bovine eNOS assessed as inhibition of nitric oxide-mediated oxidation of hemoglobin-A by hemoglobin capture assay
T2 sequence (P29473 whole entry): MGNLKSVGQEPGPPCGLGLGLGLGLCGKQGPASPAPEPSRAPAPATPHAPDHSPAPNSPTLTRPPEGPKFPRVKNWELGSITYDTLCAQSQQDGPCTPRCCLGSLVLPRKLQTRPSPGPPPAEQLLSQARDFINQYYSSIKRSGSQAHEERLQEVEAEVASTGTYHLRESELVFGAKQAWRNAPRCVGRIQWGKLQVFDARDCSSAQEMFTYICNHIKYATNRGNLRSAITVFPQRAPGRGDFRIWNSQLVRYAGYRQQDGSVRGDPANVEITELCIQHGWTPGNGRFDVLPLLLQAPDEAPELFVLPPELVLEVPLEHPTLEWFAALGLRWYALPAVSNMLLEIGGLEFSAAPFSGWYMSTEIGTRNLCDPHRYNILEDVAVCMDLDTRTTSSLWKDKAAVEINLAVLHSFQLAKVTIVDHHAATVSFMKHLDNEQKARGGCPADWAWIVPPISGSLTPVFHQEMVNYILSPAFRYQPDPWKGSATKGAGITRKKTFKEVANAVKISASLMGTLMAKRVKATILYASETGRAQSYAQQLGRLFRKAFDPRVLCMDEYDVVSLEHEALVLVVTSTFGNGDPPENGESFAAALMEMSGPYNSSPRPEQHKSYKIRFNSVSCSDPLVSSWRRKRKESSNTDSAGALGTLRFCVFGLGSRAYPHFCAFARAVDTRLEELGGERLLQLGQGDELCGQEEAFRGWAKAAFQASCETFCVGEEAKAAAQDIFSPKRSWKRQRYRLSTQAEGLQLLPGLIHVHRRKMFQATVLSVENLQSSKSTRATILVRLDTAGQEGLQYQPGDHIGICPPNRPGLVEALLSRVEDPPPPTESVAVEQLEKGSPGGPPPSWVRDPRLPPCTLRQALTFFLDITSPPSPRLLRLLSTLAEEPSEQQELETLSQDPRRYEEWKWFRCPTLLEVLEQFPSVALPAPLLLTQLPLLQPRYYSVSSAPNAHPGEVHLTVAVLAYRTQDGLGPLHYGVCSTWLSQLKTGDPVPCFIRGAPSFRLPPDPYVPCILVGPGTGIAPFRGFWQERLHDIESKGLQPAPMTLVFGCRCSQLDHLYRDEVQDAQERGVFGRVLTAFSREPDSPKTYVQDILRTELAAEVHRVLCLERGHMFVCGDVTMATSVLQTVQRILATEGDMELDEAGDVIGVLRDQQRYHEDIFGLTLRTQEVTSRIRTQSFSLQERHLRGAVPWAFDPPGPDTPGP

Chain of Nitric oxide synthase 1 (P29476 whole entry): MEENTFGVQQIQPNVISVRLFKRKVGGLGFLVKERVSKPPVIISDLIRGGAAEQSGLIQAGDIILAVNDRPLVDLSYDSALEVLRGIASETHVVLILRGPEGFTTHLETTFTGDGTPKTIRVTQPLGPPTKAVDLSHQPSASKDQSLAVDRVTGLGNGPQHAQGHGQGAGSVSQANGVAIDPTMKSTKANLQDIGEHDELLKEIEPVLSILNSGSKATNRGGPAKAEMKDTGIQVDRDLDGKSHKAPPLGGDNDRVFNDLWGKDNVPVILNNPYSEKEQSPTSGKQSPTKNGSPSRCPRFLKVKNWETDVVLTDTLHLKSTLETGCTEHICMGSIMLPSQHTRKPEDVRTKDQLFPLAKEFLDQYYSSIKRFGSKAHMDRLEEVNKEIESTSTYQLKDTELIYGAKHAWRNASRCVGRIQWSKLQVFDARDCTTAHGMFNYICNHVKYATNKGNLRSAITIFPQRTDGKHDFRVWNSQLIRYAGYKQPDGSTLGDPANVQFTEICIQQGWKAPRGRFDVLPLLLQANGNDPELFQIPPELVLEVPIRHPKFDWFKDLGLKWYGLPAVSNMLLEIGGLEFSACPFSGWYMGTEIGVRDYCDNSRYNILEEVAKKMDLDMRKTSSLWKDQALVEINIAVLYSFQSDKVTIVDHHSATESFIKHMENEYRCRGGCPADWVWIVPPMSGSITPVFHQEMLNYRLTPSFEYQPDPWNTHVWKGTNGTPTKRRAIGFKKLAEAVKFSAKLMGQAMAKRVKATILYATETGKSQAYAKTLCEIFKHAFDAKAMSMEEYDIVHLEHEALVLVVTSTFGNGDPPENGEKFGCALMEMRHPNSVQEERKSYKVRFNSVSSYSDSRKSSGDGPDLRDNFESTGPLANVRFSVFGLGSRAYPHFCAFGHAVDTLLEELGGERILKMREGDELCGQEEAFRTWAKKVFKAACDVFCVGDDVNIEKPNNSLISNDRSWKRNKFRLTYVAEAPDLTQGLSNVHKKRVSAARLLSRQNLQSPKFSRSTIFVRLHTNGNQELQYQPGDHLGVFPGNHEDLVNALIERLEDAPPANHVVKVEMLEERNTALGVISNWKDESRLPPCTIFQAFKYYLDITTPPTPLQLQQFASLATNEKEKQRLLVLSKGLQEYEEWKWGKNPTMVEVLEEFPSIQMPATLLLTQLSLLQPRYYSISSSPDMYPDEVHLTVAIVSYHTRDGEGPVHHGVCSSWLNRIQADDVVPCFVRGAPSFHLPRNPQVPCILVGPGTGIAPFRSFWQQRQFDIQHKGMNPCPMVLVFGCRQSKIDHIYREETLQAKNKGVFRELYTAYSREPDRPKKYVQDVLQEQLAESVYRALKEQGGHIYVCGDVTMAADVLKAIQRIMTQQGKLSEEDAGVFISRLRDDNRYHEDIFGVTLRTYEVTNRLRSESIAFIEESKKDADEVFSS

Row | Structure (SMILES) | Ki (Nitric oxide synthase 1) | Ki [1] | Ratio Ki [2] | Ratio Ki [3] | Ki (Nitric oxide synthase 3)
1 | Cc1cc(N)nc(CCc2cccc(C(CN)Cc3cc(C)cc(N)n3)n2)c1 (racemic) | 0.123 µM | 17.9 µM |  |  | 
2 | Cc1cc(N)nc(CCc2cccc(C(O)Cc3cc(C)cc(N)n3)c2)c1 (configuration not stated) | 0.07 µM | 5.99 µM | 86 | 52 | 3.61 µM
3 | Cc1ccnc(CCc2cccc([C@H](N)Cc3cc(C)cc(N)n3)c2)c1 |  | > 100 µM |  |  | 1050 µM
4 | Cc1ccnc(CCc2cccc([C@@H](N)Cc3cc(C)cc(N)n3)c2)c1 |  | > 100 µM | > 110 | 363 | 
